Reference: ChEMBL document CHEMBL3509396, “FDA drug approval package for Aspirin (clinical pharmacology review, Ref:ID 3227827)”

What was measured:
[1] = (§1) Mean AUC0-t of acetylsalicylic acid concentration after administration of Genuine Bayer Aspirin Tablet at fasting condition in human; format: ADME, organism-based; parameters: dietary status Fasting, dose 650 mg, dosed compound id 2.46814e+06, dosed compound name Acetylsalicylic acid, regimen Single, route oral, sampling time 24 h, study doses 325/650 mg; conditions: plasma, po, 650 mg
[2] = (§2) Mean AUCinfinity of acetylsalicylic acid concentration after administration of Genuine Bayer Aspirin Tablet at fasting condition in human; format: ADME, organism-based; parameters: time infinity, dietary status Fasting, dose 325 mg, dosed compound id 2.46814e+06, dosed compound name Acetylsalicylic acid, regimen Single, route oral, sampling time 24 h, study doses 325/650 mg; conditions: plasma, po, 325 mg, read-out: AUCinfinity (converted)
[3] = as §2; format: ADME, organism-based; parameters: time infinity, dietary status Fasting, dose 650 mg, dosed compound id 2.46814e+06, dosed compound name Acetylsalicylic acid, regimen Single, route oral, sampling time 24 h, study doses 325/650 mg; conditions: plasma, po, 650 mg, read-out: AUCinfinity (converted)
[4] = (§3) Mean Cmax of acetylsalicylic acid concentration after administration of Genuine Bayer Aspirin Tablet at fasting condition in human; format: ADME, organism-based; parameters: dietary status Fasting, dose 650 mg, dosed compound id 2.46814e+06, dosed compound name Acetylsalicylic acid, regimen Single, route oral, sampling time 24 h, study doses 325/650 mg; conditions: plasma, po, 650 mg
[5] = (§4) Mean terminal elimination half-life of acetylsalicylic acid concentration after administration of Genuine Bayer Aspirin Tablet at fasting condition in human; format: ADME, organism-based; parameters: dietary status Fasting, dose 325 mg, dosed compound id 2.46814e+06, dosed compound name Acetylsalicylic acid, regimen Single, route oral, sampling time 24 h, study doses 325/650 mg; conditions: plasma, po, 325 mg
[6] = (§5) Mean Tmax of acetylsalicylic acid concentration after administration of Genuine Bayer Aspirin Tablet at fasting condition in human; format: ADME, organism-based; parameters: dietary status Fasting, dose 325 mg, dosed compound id 2.46814e+06, dosed compound name Acetylsalicylic acid, regimen Single, route oral, sampling time 24 h, study doses 325/650 mg; conditions: plasma, po, 325 mg
[7] = (§6) Mean Tlag of acetylsalicylic acid concentration after administration of Genuine Bayer Aspirin Tablet at fasting condition in human; format: ADME, organism-based, Plasma; parameters: dietary status Fasting, dose 325 mg, dosed compound id 2.46814e+06, dosed compound name Acetylsalicylic acid, regimen Single, route oral, sampling time 24 h, study doses 325/650 mg; conditions: in vivo, po
[8] = as §3; format: ADME, organism-based; parameters: dietary status Fasting, dose 325 mg, dosed compound id 2.46814e+06, dosed compound name Acetylsalicylic acid, regimen Single, route oral, sampling time 24 h, study doses 325/650 mg; conditions: plasma, po, 325 mg
[9] = as §6; format: ADME, organism-based, Plasma; parameters: dietary status Fasting, dose 650 mg, dosed compound id 2.46814e+06, dosed compound name Acetylsalicylic acid, regimen Single, route oral, sampling time 24 h, study doses 325/650 mg; conditions: in vivo, po
[10] = as §5; format: ADME, organism-based; parameters: dietary status Fasting, dose 650 mg, dosed compound id 2.46814e+06, dosed compound name Acetylsalicylic acid, regimen Single, route oral, sampling time 24 h, study doses 325/650 mg; conditions: plasma, po, 650 mg
[11] = as §4; format: ADME, organism-based; parameters: dietary status Fasting, dose 650 mg, dosed compound id 2.46814e+06, dosed compound name Acetylsalicylic acid, regimen Single, route oral, sampling time 24 h, study doses 325/650 mg; conditions: plasma, po, 650 mg
[12] = as §1; format: ADME, organism-based; parameters: dietary status Fasting, dose 325 mg, dosed compound id 2.46814e+06, dosed compound name Acetylsalicylic acid, regimen Single, route oral, sampling time 24 h, study doses 325/650 mg; conditions: plasma, po, 325 mg

Question: Which AUC(0-t) [1] does the source give for `CC(=O)Oc1ccccc1C(=O)O` [ASPIRIN] here?
Answer: 6880 ng·h/mL

Question: What about the AUC(0-inf) [2] of the same molecule?
Answer: 3830 ng·h/mL

Question: What about the AUC(0-inf) [3] of the same molecule?
Answer: 7280 ng·h/mL

Question: And the Cmax [4]?
Answer: 5100 ng/mL

Question: And the half-life [5]?
Answer: 31 min

Question: What about the Tmax [6] of the same molecule?
Answer: 68 min

Question: And the Tlag [7]?
Answer: 2 min

Question: What about the Cmax [8] of the same molecule?
Answer: 2590 ng/mL

Question: What about the Tlag [9] of the same molecule?
Answer: 1 min

Question: What about the Tmax [10] of the same molecule?
Answer: 40 min

Question: And the half-life [11]?
Answer: 55 min

Question: What about the AUC(0-t) [12] of the same molecule?
Answer: 3520 ng·h/mL
